Data taken from PMC8380212, “^18F-labeled tracers targeting fibroblast activation protein” (EJNMMI Radiopharmacy and Chemistry, 2021).

Assay: Serum stability assay
Assay type: in vitro ADME, human
Conditions: 37 °C, 10 min to 4 h, radio-HPLC
Experimental: Five MBq of purified [^18F]AlF-FAPI-74 (20 GBq/µmol) were dried under reduced pressure and the residue incubated in 300 µL human serum (Sigma Aldrich Germany) at 37 °C. After different time intervals (10 min to 4 h) 20 µL samples were precipitated with 40 µL acetonitrile. The stability of the labeled peptide was monitored by radio-HPLC of the supernatant. A gradient of 0% to 30% acetonitrile in 10 min was used for enhanced separation performance.

stability in human serum (listed as 18F-labeled FAPI-74): No degradation products were observed
Structure (SMILES): N#C[C@@H]1CCCN1C(=O)CNC(=O)c1ccnc2ccc(OCCCN3CCN(C(=O)CN4CCN(CC(=O)O)CCN(CC(=O)O)CC4)CC3)cc12 [FAPI-74]
stability in human serum (listed as [^18F]AlF-FAPI-74): no degradation of the tracer or instability of the [^18F]AlF-NOTA complex
